Test results published in PMC10762078, “Role of UPF1-LIN28A interaction during early differentiation of pluripotent stem cells” (Nature Communications, 2024).

Experiments:
[1] = tested on: CHA15 cells; assay: Flow cytometry (FACS) of OCT4- and NANOG-positive cells (Fig. 6c, Supplementary Fig. 6b); format: cell-based, human; details: CHA15, CPP-peptide 10 μM; mean of 3 sets
Experimental: (§1) For CPP-conjugated peptide delivery, HeLa, 293T, and PA-1 cells were incubated with CPP-conjugated peptides or CPP-FITC at 2 μM in DMEM with 10% FBS for 12 h a day before cell harvest. hPSCs were treated with CPP-conjugated peptides at 10 μM in mTeSR Plus Medium, and the peptide-containing medium was changed every day over 10 days. The ROCK inhibitor (Tocris Bioscience, Y-27632) treated-hPSCs were dissociated into single cells using Accutase (Merck, SCR005) and differentiated into ectoderm, mesoderm, and endoderm using the STEMdiff Trilineage Differentiation Kit ([…] Technologies, 05230) following the manufacturer’s protocol. Differentiated cells treated with CPP-conjugated peptides were analysed at 0, 3, and 5 days for ectoderm and endoderm, and at 0, 3, and 4 days for mesoderm.
To evaluate the relative cell number expressing the indicated proteins, CHA15 cells with the indicated CPP-conjugated peptide were fixed with BD Cytofix Fixation Buffer (BD Biosciences Pharmingen, 554655) followed by permeabilization with 0.1% BSA/PBS solution supplemented with 10% NGS and 0.3% Triton X-100 for 1 h at 4 °C. After washing, cells were incubated with the primary antibodies (OCT4 1:1000, NANOG 1:1000, DLK1 1:1000, SOX2 1:1000, LHX2 1:1000) and then, secondary antibody, Alexa Fluor 488 (1:1000), was applied. The positive cells were determined using flow cytometry (FACSCanto, BD Pharmingen), and data was analysed using the Flow Jo-v10 software program.

[2] = tested on: hPSCs; assay: RT-qPCR of pluripotency and germ-layer markers during differentiation with CPP-peptides (Supplementary Fig. 7b-e); format: cell-based, human
Experimental: as §1, with “mesoderm. […]” for “mesoderm.”
cDNA was synthesised using RevertAid Reverse Transcriptase (Thermo Fisher Scientific, EP0441) with synthesised random hexamer (Macrogen) for total RNA or stem-loop primers for miRNA. For RT-qPCR reactions, the SensiFAST SYBR No-ROX kit (Meridian Bioscience) was used according to the manufacturer’s protocol. All data analysis and visualisation were conducted using R 3.6.1 [www.r-project.org] or GraphPad Prism 10. RT primers for miRNA and RT-qPCR primer sequences are provided in Supplementary Data 6. […]
FPKM of each gene was presented f r om RNA-seq analysis. b–e hPSCs wer e treated with the indicated peptide during each germ la ye r differentiation. […]
An unpaired Student’s t-test was used for a–e. Data are presented as mean values ± SEM. All statistical test us ed wer e two-s ided. T he m inim um number of independent biological replicate experim ents was a–f n = 3. T he experiments wer e conducted three tim es, each iteration producing consistent results.

[3] = Fig. s7d, day 3, mean of 3 replicates
[4] = Fig. s7d, day 4, mean of 3 replicates

## N-QKLDQKELQLEPM-C [P1, reference compound]
[1]
  NANOG-positive cells, FACS (relative), mean: 1
  OCT4-positive cells, FACS (relative), mean: 1
[2]; Day 0, replicate 1, Fig. s7e
  CXCR4 (RT-qPCR): 1.088
  FOXA1 (RT-qPCR): 1.247
  GATA4 (RT-qPCR): 0.7242
  SOX17 (RT-qPCR): 1.264
[2]; Day 0, replicate 2, Fig. s7e
  CXCR4 (RT-qPCR): 0.7848
  FOXA1 (RT-qPCR): 1.413
  GATA4 (RT-qPCR): 1.3517
  SOX17 (RT-qPCR): 0.8709
[2]; Day 0, replicate 3, Fig. s7e
  CXCR4 (RT-qPCR): 1.127
  FOXA1 (RT-qPCR): 0.3396
  GATA4 (RT-qPCR): 0.9241
  SOX17 (RT-qPCR): 0.8647
[2]; Day 3, replicate 1, Fig. s7e
  CXCR4 (RT-qPCR): 801.652
  FOXA1 (RT-qPCR): 110.429
  GATA4 (RT-qPCR): 30.0473
  SOX17 (RT-qPCR): 1651.55
[2]; Day 3, replicate 2, Fig. s7e
  CXCR4 (RT-qPCR): 485.59
  FOXA1 (RT-qPCR): 100.761
  GATA4 (RT-qPCR): 43.5025
  SOX17 (RT-qPCR): 1098.49
[2]; Day 3, replicate 3, Fig. s7e
  CXCR4 (RT-qPCR): 555.318
  FOXA1 (RT-qPCR): 171.159
  GATA4 (RT-qPCR): 37.4013
  SOX17 (RT-qPCR): 1780.82
[2]; Day 5, replicate 1, Fig. s7e
  CXCR4 (RT-qPCR): 1042.02
  FOXA1 (RT-qPCR): 247.532
  GATA4 (RT-qPCR): 61.3703
  SOX17 (RT-qPCR): 1087.63
[2]; Day 5, replicate 2, Fig. s7e
  CXCR4 (RT-qPCR): 799.656
  FOXA1 (RT-qPCR): 297.277
  GATA4 (RT-qPCR): 60.3509
  SOX17 (RT-qPCR): 1382.51
[2]; Day 5, replicate 3, Fig. s7e
  CXCR4 (RT-qPCR): 801.596
  FOXA1 (RT-qPCR): 395.679
  GATA4 (RT-qPCR): 57.9664
  SOX17 (RT-qPCR): 1398.03
[2]; CXCR4 day 3, mean of n = 3, Fig. s7e
  Mean CXCR4 (RT-qPCR): 614.2
[2]; CXCR4 day 5, mean of n = 3, Fig. s7e
  Mean CXCR4 (RT-qPCR): 881.1
[2]; FOXA1 day 5, mean of n = 3, Fig. s7e
  Mean FOXA1 (RT-qPCR): 313.5
[2]; Fig. s7b, mesoderm, day 4, mean of 3 replicates
  SOX2 mRNA level (RT-qPCR), mean: 0.001971
[2]; Fig. s7d, Day 0, replicate 1
  BMP2 mRNA level (RT-qPCR): 0.8054
  BMP4 mRNA level (RT-qPCR): 1.545
  CDH2 mRNA level (RT-qPCR): 1.016
  CXCR4 mRNA level (RT-qPCR): 0.9995
  SNAI1 mRNA level (RT-qPCR): 1.4406
  TBXT mRNA level (RT-qPCR): 1.3
[2]; Fig. s7d, Day 0, replicate 2
  BMP2 mRNA level (RT-qPCR): 1.199
  BMP4 mRNA level (RT-qPCR): 0.6508
  CDH2 mRNA level (RT-qPCR): 0.7569
  CXCR4 mRNA level (RT-qPCR): 1.121
  SNAI1 mRNA level (RT-qPCR): 0.9418
  TBXT mRNA level (RT-qPCR): 0.8652
[2]; Fig. s7d, Day 0, replicate 3
  BMP2 mRNA level (RT-qPCR): 0.9954
  BMP4 mRNA level (RT-qPCR): 0.8046
  CDH2 mRNA level (RT-qPCR): 1.227
  CXCR4 mRNA level (RT-qPCR): 0.8798
  SNAI1 mRNA level (RT-qPCR): 0.6176
  TBXT mRNA level (RT-qPCR): 0.8351
[2]; Fig. s7d, Day 3, replicate 1
  BMP2 mRNA level (RT-qPCR): 1.069
  BMP4 mRNA level (RT-qPCR): 26.604
  CDH2 mRNA level (RT-qPCR): 19.4651
  CXCR4 mRNA level (RT-qPCR): 690.154
  SNAI1 mRNA level (RT-qPCR): 17.0238
  TBXT mRNA level (RT-qPCR): 6332.26
[2]; Fig. s7d, Day 3, replicate 2
  BMP2 mRNA level (RT-qPCR): 1.012
  BMP4 mRNA level (RT-qPCR): 28.0652
  CDH2 mRNA level (RT-qPCR): 19.9537
  CXCR4 mRNA level (RT-qPCR): 760.409
  SNAI1 mRNA level (RT-qPCR): 25.1744
  TBXT mRNA level (RT-qPCR): 7659.6
[2]; Fig. s7d, Day 3, replicate 3
  BMP2 mRNA level (RT-qPCR): 1.524
  BMP4 mRNA level (RT-qPCR): 46.0509
  CDH2 mRNA level (RT-qPCR): 27.2966
  CXCR4 mRNA level (RT-qPCR): 857.014
  SNAI1 mRNA level (RT-qPCR): 26.6105
  TBXT mRNA level (RT-qPCR): 10449.6
[2]; Fig. s7d, Day 4, replicate 1
  BMP2 mRNA level (RT-qPCR): 0.2301
  BMP4 mRNA level (RT-qPCR): 13.0546
  CDH2 mRNA level (RT-qPCR): 16.734
  CXCR4 mRNA level (RT-qPCR): 712.401
  SNAI1 mRNA level (RT-qPCR): 5.736
  TBXT mRNA level (RT-qPCR): 3587.41
[2]; Fig. s7d, Day 4, replicate 2
  BMP2 mRNA level (RT-qPCR): 0.3418
  BMP4 mRNA level (RT-qPCR): 14.5702
  CDH2 mRNA level (RT-qPCR): 18.1378
  CXCR4 mRNA level (RT-qPCR): 778.248
  SNAI1 mRNA level (RT-qPCR): 15.183
  TBXT mRNA level (RT-qPCR): 4442.19
[2]; Fig. s7d, Day 4, replicate 3
  BMP2 mRNA level (RT-qPCR): 0.2814
  BMP4 mRNA level (RT-qPCR): 11.4814
  CDH2 mRNA level (RT-qPCR): 17.3255
  CXCR4 mRNA level (RT-qPCR): 495.057
  SNAI1 mRNA level (RT-qPCR): 11.0955
  TBXT mRNA level (RT-qPCR): 3830.03
[2]; [3]
  SNAI1 mRNA level (RT-qPCR), mean: 22.94
  TBXT mRNA level (RT-qPCR), mean: 8147
[2]; [4]
  BMP4 mRNA level (RT-qPCR), mean: 13.04
  CDH2 mRNA level (RT-qPCR), mean: 17.4
  TBXT mRNA level (RT-qPCR), mean: 3953
